Tests used:
[1] = test system: children and young adults with severe, childhood onset treatment-resistant epilepsy (TRE); experiment: Expanded access compassionate use program of highly purified CBD extract added to baseline AED regimen; seizure diaries; assay type: in vivo, human
Experimental: (§1) Twenty-seven children and young adults with severe, childhood onset treatment-resistant epilepsy (TRE) were tested with a highly purified extract of cannabidiol (CBD) obtained from a cannabis plant. The participants in the study were part of an expanded access compassionate use program for CBD.
(§2) All patients entered a baseline period of 4 weeks when parents/caregivers kept prospective seizure diaries, noting all countable motor seizure types.
(§3) The patients then received a highly purified CBD extract (greater than 98% CBD w/w) in sesame oil, of known and constant composition, at a dose of 5 mg/kg/day in addition to their baseline anti-epileptic drug (AED) regimen.
(§4) Laboratory testing for hematologic, liver, kidney function, and concomitant AED levels was performed at baseline, and after 4, 8 and 12 weeks of CBD therapy.

[2] = test system: children and young adults with treatment-resistant Dravet syndrome; experiment: Expanded access compassionate use program, Dravet syndrome sub-group; assay type: in vivo, human
Experimental: as §1, §2, §3, §4
Nine children and young adults with treatment-resistant Dravet syndrome were part of an expanded access compassionate use program for highly purified CBD extract as described in Example 1.

[3] = test system: children and young adults with treatment-resistant myoclonic absence seizures; experiment: Expanded access compassionate use program, myoclonic absence seizures sub-group; assay type: in vivo, human
Experimental: as §1, §2, §3, §4
Four children and young adults with treatment-resistant myoclonic absence seizures were part of an expanded access compassionate use program for highly purified CBD extract as described in Example 1.

[4] = test system: adult patients with generalized epilepsy; settings: eight adult patients with generalized epilepsy; cited from earlier work
adult patients = settings: 200 mg/day of pure CBD, four adult patients; cited from earlier work
[5] = test system: institutionalized adult patients; settings: 200 mg/day of pure CBD, twelve institutionalized adult patients, open label; cited from earlier work
mice = settings: after administration of pro-convulsant drugs or an electric current; cited from earlier work
[6] = 27 subjects, 3-month treatment period
[7] = All patients (excluding Dravet, MAS and FIRES) (n = 13), after 12 weeks of treatment
[8] = All patients excluding Dravet patients (n = 18), after 3 months
[9] = All patients excluding MAS patients (n = 23), after 3 months
[10] = co-treatment of CBD with clobazam
[11] = 9 Dravet subjects, 3-month treatment period
[12] = Dravet patients (n = 9), after 3 months of therapy
[13] = 4 MAS subjects, 3-month treatment period
[14] = MAS patients (n = 4), after 3 months of therapy

C=C(C)[C@@H]1CCC(C)=C[C@H]1c1c(O)cc(CCCCC)cc1O [CBD, Cannabidiol]
Common adverse events [1, 6]: somnolence, fatigue, decreased appetite, increased appetite and diarrhoea | adverse events [1, 6]: mild and well tolerated | subjects who withdrew during the treatment period [1, 6]: None | Responder rate (>50% reduction) [%] [1, 7]: 38% | Responder rate (>50% reduction), number of patients [1, 7]: 5 | Responder rate (>70% reduction) [%] [1, 7]: 31% | Responder rate (>70% reduction), number of patients [1, 7]: 4 | Responder rate (>90% reduction) [%] [1, 7]: 8% | Responder rate (>90% reduction), number of patients [1, 7]: 1 | Seizure free, number of patients [1, 7]: 0 | Responder rate (>50% reduction) [%] ([1]; All patients (n = 27), Month 3): 48% | Responder rate (>50% reduction), number of patients ([1]; All patients (n = 27), Month 3): 13 | Responder rate (>70% reduction) [%] ([1]; All patients (n = 27), Month 3): 41% | Responder rate (>70% reduction), number of patients ([1]; All patients (n = 27), Month 3): 11 | Responder rate (>90% reduction) [%] ([1]; All patients (n = 27), Month 3): 22% | Responder rate (>90% reduction), number of patients ([1]; All patients (n = 27), Month 3): 6 | Seizure free [%] ([1]; All patients (n = 27), Month 3): 7% | Responder rate (>50% reduction) [%] [1, 8]: 44% | Responder rate (>50% reduction), number of patients [1, 8]: 8 | Responder rate (>70% reduction) [%] [1, 8]: 39% | Responder rate (>70% reduction), number of patients [1, 8]: 7 | Responder rate (>90% reduction) [%] [1, 8]: 17% | Responder rate (>90% reduction), number of patients [1, 8]: 3 | Seizure free, number of patients [1, 8]: 0 | Responder rate (>50% reduction) [%] [1, 9]: 48% | Responder rate (>50% reduction), number of patients [1, 9]: 11 | Responder rate (>70% reduction) [%] [1, 9]: 39% | Responder rate (>70% reduction), number of patients [1, 9]: 9 | Responder rate (>90% reduction) [%] [1, 9]: 22% | Responder rate (>90% reduction), number of patients [1, 9]: 5 | Seizure free [%] [1, 9]: 9% | Seizure free, number of patients [1, 9]: 2 | odds ratio (OR) for positive treatment response (greater than 50% responder rate), convulsive seizures [1, 10]: 1.9 | odds ratio (OR) for positive treatment response (greater than 50% responder rate), total seizure reduction [1, 10]: 3.3 | tolerability ([1]; doses up to 25 mg/kg/day): generally well-tolerated | Common adverse events [2, 11]: somnolence, fatigue, decreased appetite, increased appetite and diarrhoea | adverse events [2, 11]: mild and well tolerated | subjects who withdrew during the treatment period [2, 11]: None | Responder rate (>50% reduction) [%] [2, 12]: 56% | Responder rate (>50% reduction), number of patients [2, 12]: 5 | Responder rate (>70% reduction) [%] [2, 12]: 44% | Responder rate (>70% reduction), number of patients [2, 12]: 4 | Responder rate (>90% reduction), number of patients [2, 12]: 3 | Seizure free [%] [2, 12]: 22% | Seizure free, number of patients [2, 12]: 2 | Common adverse events [3, 13]: somnolence, fatigue, decreased appetite, increased appetite and diarrhoea | adverse events [3, 13]: mild and well tolerated | subjects who withdrew during the treatment period [3, 13]: None | Responder rate (>50% reduction), number of patients [3, 14]: 2 | Responder rate (>70% reduction) [%] [3, 14]: 50% | Responder rate (>70% reduction), number of patients [3, 14]: 2 | Responder rate (>90% reduction) [%] [3, 14]: 25% | Seizure free, number of patients [3, 14]: 0 | patients with a marked reduction of seizures [4]: 4 | patients who became seizure free (adult patients): two | controlling seizures [5]: ineffective | prevention of seizures (mice): able to prevent seizures

From patent US11766411B2, “Use of cannabinoids in the treatment of epilepsy” (GW Research Limited, priority 2014, dated 2023)
